Columns and labels:
[1] = tested on: MOLM13 cells; assay: Growth inhibition of CDK9-positive cell line MOLM13 in vitro (CCK8/MTT assay); format: cell-based, human; conditions: Homo sapiens, MOLM-13; MOLM13 cells, cultured 3 to 6 days, CCK8; read-out: IC50 of the compound for inhibiting cell growth, MOLM13 cells
[2] = biological target: T1, CDK9/CyclinK kinase (Homo sapiens, UniProt P50750); assay: CDK9 protein kinase activity, ADP-Glo CDK9/CyclinK kinase detection kit; format: biochemical; conditions: read-out: IC50 of the compound for inhibiting CDK9 protein kinase activity, CDK9/CyclinK kinase
T1 construct: purchased Promega Corporation V4105
Experimental: Measurement of CDK9 Protein Kinase Activity
The present compound was dissolved in DMSO (Sigma Aldrich), and the initial concentration of the compound was 1000 nM. A two-fold serial dilution was carried out. The specific operation of CDK9 kinase activity determination was carried out according to the ADP-Go™ CDK9/CyclinK kinase detection experimental procedure. […] Each test sample was tested in duplicate, and the test was repeated once. The inhibitory activity (IC50) of the compound on CDK9 protein kinase was calculated from the dose-inhibition curve of the compound.

T1 sequence (P50750 whole entry): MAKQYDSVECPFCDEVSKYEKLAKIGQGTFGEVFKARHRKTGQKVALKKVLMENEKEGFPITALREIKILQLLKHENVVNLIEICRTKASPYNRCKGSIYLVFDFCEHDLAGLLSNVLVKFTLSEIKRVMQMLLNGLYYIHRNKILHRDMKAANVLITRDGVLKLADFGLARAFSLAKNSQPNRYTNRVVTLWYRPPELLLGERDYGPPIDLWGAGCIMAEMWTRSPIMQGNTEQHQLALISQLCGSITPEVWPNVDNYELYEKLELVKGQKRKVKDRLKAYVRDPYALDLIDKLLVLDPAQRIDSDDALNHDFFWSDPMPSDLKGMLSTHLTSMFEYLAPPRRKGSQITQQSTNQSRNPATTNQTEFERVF
T1 sequence (O75909 whole entry partner): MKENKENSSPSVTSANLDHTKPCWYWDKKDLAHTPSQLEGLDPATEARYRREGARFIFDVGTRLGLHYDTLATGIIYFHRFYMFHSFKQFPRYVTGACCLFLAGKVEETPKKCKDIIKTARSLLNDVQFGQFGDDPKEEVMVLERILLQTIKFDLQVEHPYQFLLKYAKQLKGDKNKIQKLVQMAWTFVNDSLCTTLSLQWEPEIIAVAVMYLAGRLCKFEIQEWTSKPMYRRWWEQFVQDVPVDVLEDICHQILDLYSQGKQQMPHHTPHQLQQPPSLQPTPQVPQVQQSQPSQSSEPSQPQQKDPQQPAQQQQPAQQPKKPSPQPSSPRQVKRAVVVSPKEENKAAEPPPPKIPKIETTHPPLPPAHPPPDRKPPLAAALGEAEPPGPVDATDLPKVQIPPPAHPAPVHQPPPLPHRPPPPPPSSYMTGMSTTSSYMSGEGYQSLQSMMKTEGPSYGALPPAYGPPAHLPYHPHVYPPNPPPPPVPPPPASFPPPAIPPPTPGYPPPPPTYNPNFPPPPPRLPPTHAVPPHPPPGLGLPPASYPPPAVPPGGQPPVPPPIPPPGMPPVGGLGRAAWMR

NC(=O)c1cn(-c2nc(Nc3cccc(N4CCN(C(=O)N5CCOCC5)CC4)c3)ncc2F)c2ccccc12 [Compound 167, 1-(5-fluoro-2-{3-[4-(morpholin-4-carbonyl)-piperazin-1-yl]-phenylamino}-pyrimidin-4-yl)-1H-indole-3-carboxamide]
IC50 [1]: < 1 nM
IC50 [2]: < 1 nM

— patent publication US20210101881A1 (Ancureall Pharmaceutical (Shanghai) Co., Ltd., priority 2018, published 2021)
